These results are taken from patent publication US20250163089A1, “Branched Molecules for Redox Flow Batteries” (XL Batteries, Inc., priority 2023, published 2025).

The conditions of series [1]: solvent not stated.
Series [2] in a line: Viscosity of the solution. Particulars: at a concentration of […]. The format is physicochemical.

For the molecule `O=C(O)CCC[c-]1cccc1.[Fe+2].c1cc[cH-]c1` [4-ferrocene butyric acid], the “maximum concentration dissolved, after which solid precipitated from the solution” value in series [1] is reported as 0.251 M.

Usually viscosity stands for the resistance of a fluid to flow. Read a high viscosity as a thick fluid. In series [2], N-(4-ferrocenylbutanoyl)-L-glutamate registered a viscosity of 3.7 cP.
